# Target: ATP-dependent translocase ABCB1 (Homo sapiens, UniProt P08183)
# Test: TP_TRANSPORTER: drug resistance (vincristine) in HeLa-MDR1 cells
# Assay type: functional, cell-based
# Sequence of ATP-dependent translocase ABCB1 (P08183 whole entry): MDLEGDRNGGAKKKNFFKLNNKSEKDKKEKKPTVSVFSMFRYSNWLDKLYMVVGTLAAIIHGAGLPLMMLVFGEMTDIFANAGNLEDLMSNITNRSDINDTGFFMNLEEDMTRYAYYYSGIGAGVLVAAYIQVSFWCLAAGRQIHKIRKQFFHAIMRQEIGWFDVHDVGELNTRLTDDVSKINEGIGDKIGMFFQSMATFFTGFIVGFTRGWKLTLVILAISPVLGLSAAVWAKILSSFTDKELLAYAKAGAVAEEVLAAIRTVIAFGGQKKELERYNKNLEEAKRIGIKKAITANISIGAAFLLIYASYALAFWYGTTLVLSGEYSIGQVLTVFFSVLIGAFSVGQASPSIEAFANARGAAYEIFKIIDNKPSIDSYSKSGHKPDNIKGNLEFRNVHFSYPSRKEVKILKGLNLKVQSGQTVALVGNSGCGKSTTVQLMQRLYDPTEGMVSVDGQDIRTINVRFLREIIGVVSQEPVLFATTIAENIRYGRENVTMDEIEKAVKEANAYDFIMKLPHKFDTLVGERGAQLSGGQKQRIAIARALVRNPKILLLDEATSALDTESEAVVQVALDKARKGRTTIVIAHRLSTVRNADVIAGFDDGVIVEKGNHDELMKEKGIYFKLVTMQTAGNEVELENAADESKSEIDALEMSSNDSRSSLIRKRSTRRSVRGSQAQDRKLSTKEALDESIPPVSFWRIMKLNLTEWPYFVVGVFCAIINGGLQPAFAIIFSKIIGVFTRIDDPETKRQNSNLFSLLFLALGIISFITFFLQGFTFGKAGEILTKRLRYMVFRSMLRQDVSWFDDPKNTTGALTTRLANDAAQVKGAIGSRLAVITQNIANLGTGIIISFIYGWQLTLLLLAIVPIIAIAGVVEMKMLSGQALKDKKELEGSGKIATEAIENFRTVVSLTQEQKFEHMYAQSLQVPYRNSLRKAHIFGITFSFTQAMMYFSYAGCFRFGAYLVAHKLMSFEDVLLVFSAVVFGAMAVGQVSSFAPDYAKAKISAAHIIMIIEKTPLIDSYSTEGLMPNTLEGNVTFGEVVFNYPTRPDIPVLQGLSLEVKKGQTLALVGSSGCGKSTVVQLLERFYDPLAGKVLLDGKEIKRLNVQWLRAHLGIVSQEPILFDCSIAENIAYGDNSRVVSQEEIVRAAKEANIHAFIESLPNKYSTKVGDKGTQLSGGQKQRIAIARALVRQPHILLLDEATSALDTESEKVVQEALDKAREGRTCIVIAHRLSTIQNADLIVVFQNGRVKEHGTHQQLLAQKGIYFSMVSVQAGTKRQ
row,Activity,Compound
1,substrate [+],O=C1c2cc(Cl)nnc2Oc2cc(C(F)(F)F)ccc2N1CCCN1CCN(C(c2ccccc2)c2ccccc2)CC1
2,substrate [+],O=C1c2cc(Cl)nnc2Oc2ccc(C(F)(F)F)cc2N1CCCN1CCN(Cc2ccccc2)CC1
3,substrate [+],O=C1c2cc(Cl)nnc2Oc2ccc(C(F)(F)F)cc2N1CCCN1CCN(c2ccccc2)CC1
4,substrate [+],Cc1cc(C)c2c(c1)N(CCCN1CCN(c3ccccc3)CC1)C(=O)c1cc(Cl)nnc1O2

# Source: ChEMBL document CHEMBL2073791, “Substituted pyridazino[3,4-b][1,5]benzoxazepin-5(6H)ones as multidrug-resistance modulating agents” (J Med Chem, 2004)
